Measured values: US20230150974A1 (Foghorn Therapeutics Inc., priority 2020, published 2023)
Counter-ions that a name gives are not always drawn.

Columns and labels:
HiBiT-BRM = molecular target: T1, HiBiT-BRM (Homo sapiens, UniProt P51531); test: HiBiT-BRM cell-based degradation assay (Nano-Glo HiBiT Lytic Detection); conditions: HeLa cells expressing HiBiT-BRM, 24 h; for DC50: read-out: BRM HiBit Degradation IC50
T1 construct: expressed in transfected cells
In short: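 HeLa cells stably expressing HiBiT-tagged BRM were treated for 24 h, then lysed with LgBiT-containing Nano-Glo reagent and luminescence read. % degradation scaled between DMSO (high control) and 2 μM reference BRM/BRG1 degrader (low control).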

HiBit-BRG1 = molecular target: T2, HiBit-BRG1 (Homo sapiens, UniProt P51532); test: HiBit-BRG1 cell-based degradation assay (Nano-Glo HiBiT Lytic Detection); conditions: HeLa cells expressing HiBit-BRG1 and LgBit, 24 h; for DC50: read-out: BRG1 HiBit Degradation IC50; for Dmax: read-out: BRG1 HiBit Degradation Maximum (%)
T2 construct: expressed in transfected cells
In short: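 Luminescence from reconstituted NanoBiT luciferase after lytic detection served as read-out of remaining HiBit-BRG1 in stable HeLa cells, which also express LgBit. Cells were seeded at 5000 per well and incubated with compound for 24 h. DMSO and a 2 μM known degrader defined the control range.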

T2 sequence (P51532 whole entry): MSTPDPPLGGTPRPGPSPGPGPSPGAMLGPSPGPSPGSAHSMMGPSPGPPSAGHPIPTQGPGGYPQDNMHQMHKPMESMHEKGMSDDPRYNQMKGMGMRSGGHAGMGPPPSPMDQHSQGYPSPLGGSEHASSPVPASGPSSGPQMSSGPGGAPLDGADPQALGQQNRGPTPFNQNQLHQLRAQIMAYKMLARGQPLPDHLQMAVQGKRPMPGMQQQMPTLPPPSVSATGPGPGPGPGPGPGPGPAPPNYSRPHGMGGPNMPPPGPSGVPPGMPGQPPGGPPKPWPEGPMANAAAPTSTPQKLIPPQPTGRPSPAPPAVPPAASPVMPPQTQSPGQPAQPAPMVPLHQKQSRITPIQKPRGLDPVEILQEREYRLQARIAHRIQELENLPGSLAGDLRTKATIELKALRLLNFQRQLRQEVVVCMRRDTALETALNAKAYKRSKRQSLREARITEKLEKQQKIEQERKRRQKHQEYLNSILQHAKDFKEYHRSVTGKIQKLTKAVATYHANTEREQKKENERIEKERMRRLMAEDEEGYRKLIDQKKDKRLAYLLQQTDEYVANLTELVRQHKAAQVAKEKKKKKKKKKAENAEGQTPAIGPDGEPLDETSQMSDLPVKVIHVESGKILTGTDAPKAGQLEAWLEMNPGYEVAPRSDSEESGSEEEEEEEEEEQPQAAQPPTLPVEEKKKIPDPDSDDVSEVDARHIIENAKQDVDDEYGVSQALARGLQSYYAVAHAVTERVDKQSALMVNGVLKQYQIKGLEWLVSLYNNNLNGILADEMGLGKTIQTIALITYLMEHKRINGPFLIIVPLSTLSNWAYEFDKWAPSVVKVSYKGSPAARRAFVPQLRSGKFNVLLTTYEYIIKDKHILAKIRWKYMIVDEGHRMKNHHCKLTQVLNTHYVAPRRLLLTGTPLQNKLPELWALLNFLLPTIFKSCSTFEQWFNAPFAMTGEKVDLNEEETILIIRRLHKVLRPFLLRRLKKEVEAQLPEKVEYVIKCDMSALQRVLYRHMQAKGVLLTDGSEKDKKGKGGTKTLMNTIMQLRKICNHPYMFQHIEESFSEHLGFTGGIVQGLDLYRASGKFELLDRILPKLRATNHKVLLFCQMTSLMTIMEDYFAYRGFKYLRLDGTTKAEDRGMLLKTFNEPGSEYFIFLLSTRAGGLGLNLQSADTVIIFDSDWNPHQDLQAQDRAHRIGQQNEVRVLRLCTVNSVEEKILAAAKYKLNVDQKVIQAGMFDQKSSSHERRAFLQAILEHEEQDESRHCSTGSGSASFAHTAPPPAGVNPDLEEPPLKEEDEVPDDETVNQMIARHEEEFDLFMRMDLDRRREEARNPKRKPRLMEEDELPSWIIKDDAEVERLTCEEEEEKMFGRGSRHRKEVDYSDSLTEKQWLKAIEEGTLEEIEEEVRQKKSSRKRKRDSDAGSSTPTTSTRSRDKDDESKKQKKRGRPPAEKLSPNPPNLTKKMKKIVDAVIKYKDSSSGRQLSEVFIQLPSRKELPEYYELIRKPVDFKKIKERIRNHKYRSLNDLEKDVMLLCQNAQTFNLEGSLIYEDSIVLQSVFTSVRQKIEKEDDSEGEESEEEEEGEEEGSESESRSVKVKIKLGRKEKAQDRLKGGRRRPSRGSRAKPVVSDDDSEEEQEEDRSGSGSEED
T1 sequence (P51531 whole entry): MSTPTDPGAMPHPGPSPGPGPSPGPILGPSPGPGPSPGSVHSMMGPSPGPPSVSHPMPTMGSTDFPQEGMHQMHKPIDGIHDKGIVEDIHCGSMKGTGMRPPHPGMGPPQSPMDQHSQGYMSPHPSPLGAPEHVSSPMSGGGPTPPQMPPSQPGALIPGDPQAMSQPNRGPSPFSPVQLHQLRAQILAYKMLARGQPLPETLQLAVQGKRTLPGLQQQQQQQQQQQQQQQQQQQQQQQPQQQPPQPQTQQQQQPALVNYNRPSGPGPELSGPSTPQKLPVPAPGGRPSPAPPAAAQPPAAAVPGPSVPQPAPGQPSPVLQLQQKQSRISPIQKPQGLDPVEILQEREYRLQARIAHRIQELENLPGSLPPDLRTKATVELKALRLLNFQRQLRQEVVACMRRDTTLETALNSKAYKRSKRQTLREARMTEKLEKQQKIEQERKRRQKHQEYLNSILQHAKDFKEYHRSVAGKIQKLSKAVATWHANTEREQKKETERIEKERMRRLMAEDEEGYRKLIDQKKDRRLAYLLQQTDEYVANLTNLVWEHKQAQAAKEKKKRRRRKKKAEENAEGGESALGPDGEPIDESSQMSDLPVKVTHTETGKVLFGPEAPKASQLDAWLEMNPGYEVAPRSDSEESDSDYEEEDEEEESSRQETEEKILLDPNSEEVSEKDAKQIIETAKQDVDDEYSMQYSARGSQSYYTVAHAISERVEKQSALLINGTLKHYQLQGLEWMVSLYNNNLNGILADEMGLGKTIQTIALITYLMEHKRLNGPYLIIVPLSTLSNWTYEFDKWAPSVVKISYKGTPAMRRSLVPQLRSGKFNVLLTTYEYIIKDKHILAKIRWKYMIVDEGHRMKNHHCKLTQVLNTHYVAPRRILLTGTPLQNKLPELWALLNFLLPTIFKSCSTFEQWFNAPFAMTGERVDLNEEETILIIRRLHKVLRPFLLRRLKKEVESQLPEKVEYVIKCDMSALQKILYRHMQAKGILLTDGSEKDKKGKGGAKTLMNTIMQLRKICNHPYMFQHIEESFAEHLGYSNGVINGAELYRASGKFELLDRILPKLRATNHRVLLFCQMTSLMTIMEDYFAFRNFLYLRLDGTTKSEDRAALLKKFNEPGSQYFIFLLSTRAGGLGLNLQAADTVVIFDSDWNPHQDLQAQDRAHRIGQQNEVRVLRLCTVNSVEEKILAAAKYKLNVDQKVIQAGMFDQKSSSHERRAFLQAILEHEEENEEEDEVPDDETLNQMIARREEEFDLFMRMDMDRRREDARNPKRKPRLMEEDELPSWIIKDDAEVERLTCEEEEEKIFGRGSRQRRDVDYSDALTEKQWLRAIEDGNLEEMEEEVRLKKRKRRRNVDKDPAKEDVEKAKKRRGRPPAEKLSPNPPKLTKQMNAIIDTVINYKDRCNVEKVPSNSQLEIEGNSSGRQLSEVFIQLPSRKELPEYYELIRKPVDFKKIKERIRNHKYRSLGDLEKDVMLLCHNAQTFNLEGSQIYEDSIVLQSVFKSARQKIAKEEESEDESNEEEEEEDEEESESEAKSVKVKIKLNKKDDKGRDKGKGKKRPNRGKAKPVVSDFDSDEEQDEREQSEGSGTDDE

| DC50 (HiBiT-BRM) [nM] | DC50 (HiBit-BRG1) [nM] | Dmax (HiBit-BRG1) [%] | Structure (SMILES) | BRM HiBit Degradation Maximum (%) (HiBiT-BRM) |
| --- | --- | --- | --- | --- |
| > 1000 | > 1000 | < 50 | Nc1nnc(-c2ccccc2O)cc1NCCc1ccc(CNC(=O)CCCCOc2cccc3c2C(=O)N(C2CCC(=O)NC2=O)C3=O)cc1 (stereo not shown) [Compound 147, N-(4-(2-((3-amino-6-(2-hydroxyphenyl)pyridazin-4-yl)amino)ethyl)benzyl)-5-((2-(2,6-dioxopiperidin-3-yl)-1,3-dioxoisoindolin-4-yl)oxy)pentanamide] | C (“C” indicates maximum degradation <50%) |
| > 100 | > 100 | > 50 | Nc1nnc(-c2ccccc2O)cc1OCCc1ccc(C(=O)NCCN2CCN(c3cccc4c3C(=O)N(C3CCC(=O)NC3=O)C4=O)CC2)cc1 (stereo not shown) [Compound 149, 4-(2-((3-amino-6-(2-hydroxyphenyl)pyridazin-4-yl)oxy)ethyl)-N-(2-(4-(2-(2,6-dioxopiperidin-3-yl)-1,3-dioxoisoindolin-4-yl)piperazin-1-yl)ethyl)benzamide] | A (“A” indicates maximum degradation ≥75%) |
| > 1000 | > 1000 | < 50 | Nc1nnc(-c2ccccc2O)cc1OCCc1ccc(CNCCN2CCN(c3cccc4c3C(=O)N(C3CCC(=O)NC3=O)C4=O)CC2=O)cc1 (stereo not shown) [Compound 153, 4-(4-(2-((4-(2-((3-amino-6-(2-hydroxyphenyl)pyridazin-4-yl)oxy)ethyl)benzyl)amino)ethyl)-3-oxopiperazin-1-yl)-2-(2,6-dioxopiperidin-3-yl)isoindoline-1,3-dione] | C (“C” indicates maximum degradation <50%) |
| > 1000 | > 1000 | < 50 | Nc1nnc(-c2ccccc2O)cc1OCCc1ccc(CNC(=O)CCCCNc2ccc3c(c2)C(=O)N(C2CCC(=O)NC2=O)C3=O)cc1 (stereo not shown) [Compound 154, N-(4-(2-((3-amino-6-(2-hydroxyphenyl)pyridazin-4-yl)oxy)ethyl)benzyl)-5-((2-(2,6-dioxopiperidin-3-yl)-1,3-dioxoisoindolin-5-yl)amino)pentanamide] | C (“C” indicates maximum degradation <50%) |
| > 10 | < 10 | > 50 | CN(CCCCCNc1cccc2c1C(=O)N(C1CCC(=O)NC1=O)C2=O)Cc1ccc(CCOc2cc(-c3ccccc3O)nnc2N)cc1 (stereo not shown) [Compound 156, 4-((5-((4-(2-((3-amino-6-(2-hydroxyphenyl)pyridazin-4-yl)oxy)ethyl)benzyl)(methyl)amino)pentyl)amino)-2-(2,6-dioxopiperidin-3-yl)isoindoline-1,3-dione formate] | B (“B” indicates maximum degradation ≥50%) |
| > 100 | > 100 | > 50 | Nc1nnc(-c2ccccc2O)cc1OCCc1ccc(CNCCN2CC3CC2CN3c2cccc3c2C(=O)N(C2CCC(=O)NC2=O)C3=O)cc1 (stereo not shown) [Compound 158, 4-(5-(2-((4-(2-((3-amino-6-(2-hydroxyphenyl)pyridazin-4-yl)oxy)ethyl)benzyl)amino)ethyl)-2,5-diazabicyclo[2.2.1]heptan-2-yl)-2-(2,6-dioxopiperidin-3-yl)isoindoline-1,3-dione] | B (“B” indicates maximum degradation ≥50%) |
| > 1000 | > 1000 | > 50 | CN(CCc1ccc(CNCCN2CCN(c3cccc4c3C(=O)N(C3CCC(=O)NC3=O)C4=O)CC2)cc1)c1cc(-c2ccccc2O)nnc1N (stereo not shown) [Compound 160, 4-(4-(2-((4-(2-((3-amino-6-(2-hydroxyphenyl)pyridazin-4-yl)(methyl)amino)ethyl)benzyl)amino)ethyl)piperazin-1-yl)-2-(2,6-dioxopiperidin-3-yl)isoindoline-1,3-dione diformate] | B (“B” indicates maximum degradation ≥50%) |

The next lines start with the molecule.

| Structure (SMILES) | DC50 (HiBiT-BRM) [nM] | DC50 (HiBit-BRG1) [nM] | Dmax (HiBit-BRG1) [%] | BRM HiBit Degradation Maximum (%) (HiBiT-BRM) |
| --- | --- | --- | --- | --- |
| CN(CCCCCOc1ccc2c(c1)C(=O)N(C1CCC(=O)NC1=O)C2=O)Cc1ccc(CCOc2cc(-c3ccccc3O)nnc2N)cc1 (stereo not shown) [Compound 148, 5-((5-((4-(2-((3-amino-6-(2-hydroxyphenyl)pyridazin-4-yl)oxy)ethyl)benzyl)(methyl)amino)pentyl)oxy)-2-(2,6-dioxopiperidin-3-yl)isoindoline-1,3-dioneformate] | > 1000 | > 1000 | < 50 | C (“C” indicates maximum degradation <50%) |
| CN(CCCCCOc1cccc2c1C(=O)N(C1CCC(=O)NC1=O)C2=O)Cc1ccc(CCNc2cc(-c3ccccc3O)nnc2N)cc1 (stereo not shown) [Compound 150, 4-((5-((4-(2-((3-amino-6-(2-hydroxyphenyl)pyridazin-4-yl)amino)ethyl)benzyl)(methyl)amino)pentyl)oxy)-2-(2,6-dioxopiperidin-3-yl)isoindoline-1,3-dione, formic acid salt] | > 1000 | > 1000 | < 50 | C (“C” indicates maximum degradation <50%) |
| CN(CCCCCNc1ccc2c(c1)C(=O)N(C1CCC(=O)NC1=O)C2=O)Cc1ccc(CCOc2cc(-c3ccccc3O)nnc2N)cc1 (stereo not shown) [Compound 151, 5-[[5-([[4-(2-[[3-amino-6-(2-hydroxyphenyl)pyridazin-4-yl]oxy]ethyl)phenyl]methyl](methyl)amino)pentyl]amino]-2-(2,6-dioxopiperidin-3-yl)isoindole-1,3-dione] | > 1000 | > 1000 | > 50 | C (“C” indicates maximum degradation <50%) |
| Nc1nnc(-c2ccccc2O)cc1OCCc1ccc(CNC(=O)CCCCOc2cccc3c2C(=O)N(C2CCC(=O)NC2=O)C3)cc1 (stereo not shown) [Compound 152, N-(4-(2-((3-amino-6-(2-hydroxyphenyl)pyridazin-4-yl)oxy)ethyl)benzyl)-5-((2-(2,6-dioxopiperidin-3-yl)-3-oxoisoindolin-4-yl)oxy)pentanamide] | > 100 | > 1000 | < 50 | A (“A” indicates maximum degradation ≥75%) |
| Nc1nnc(-c2ccccc2O)cc1OCCc1ccc(CNC(=O)CCCCNc2cccc3c2C(=O)N(C2CCC(=O)NC2=O)C3)cc1 (stereo not shown) [Compound 155, N-(4-(2-((3-amino-6-(2-hydroxyphenyl)pyridazin-4-yl)oxy)ethyl)benzyl)-5-((2-(2,6-dioxopiperidin-3-yl)-3-oxoisoindolin-4-yl)amino)pentanamide] | > 100 | > 1000 | < 50 | A (“A” indicates maximum degradation ≥75%) |
| Cc1ncsc1-c1ccc(CNC(=O)[C@@H]2C[C@@H](O)CN2C(=O)[C@@H](NC(=O)CCCCCCCCCCCCCC(=O)N(C)Cc2ccc(CCOc3cc(-c4ccccc4O)nnc3N)cc2)C(C)(C)C)cc1 [Compound 159, N1-(4-(2-((3-amino-6-(2-hydroxyphenyl)pyridazin-4-yl)oxy)ethyl)benzyl)-N15-((S)-1-((2S,4R)-4-hydroxy-2-((4-(4-methylthiazol-5-yl)benzyl)carbamoyl)pyrrolidin-1-yl)-3,3-dimethyl-1-oxobutan-2-yl)-N1-methylpentadecanediamide] | > 10 | > 1000 | < 50 | A (“A” indicates maximum degradation ≥75%) |
